Data reported in patent publication US8053585B2, “Protecting group for carboxylic acids that can be photolyzed by visible light” (Cornell Research Foundation, Inc., priority 2006, dated 2011).

System: GluR6 glutamate receptor
Test: Laser-pulse photolysis of DECM-caged glutamate on HEK 293 cells
Format: cell-based
Settings: 2 mM caged compound, −60 mV, pH 7.4, 22° C.
Description: The cells were used for electrophysiological experiments between 24 and 72 h after each passage. Whole-cell currents evoked by glutamate or glycine (100 μM) were recorded using the whole-cell configuration (Hamill et al., “Improved Patch-Clamp Techniques for High-Resolution Current Recording From Cells and Cell-Free Membrane Patches,” Pfluegers Arch 391:85-100 (1981), which is hereby incorporated by reference in its entirety) at room temperature, −60 mV, and pH 7.4. The experiments using DECM-caged glutamate were carried out in the absence or presence of 2 mM DECM-caged glutamate (FIG. 5A) or 1 mM 7-N,N-diethylamino-4-hydroxymethylcoumarin (2) (FIG. 5B). Alternatively, the experiments using DECM-caged glycine were carried out in the absence or presence of 1 mM DECM-caged-glycine (FIG. 10). The solution in the recording pipet contained 120 mM CsCl, 10 mM EGTA, and 10 mM HEPES, adjusted to pH 7.4. The HEK cell bath solution contained 150 mM NaCl, 1 mM CaCl2, 10 mM HEPES, pH 7.4. The resistance of the recording electrode filled with buffer solution was typically 3-5 MΩ and the series resistance was 5-6 MΩ. […]
The laser light produced by the Exalite (Exiton Inc., Dayton, Ohio) 404 dye (≧400 nm) was coupled into an optical fiber (300 μm internal diameter), which delivered the light to the cell. […] Data were analyzed with Microcal Origin3.5 software (Microcal, Northampton, Mass.).

CCN(CC)c1ccc2c(COC(=O)CCC(N)C(=O)O)cc(=O)oc2c1 (centres unmarked) [DECM-caged glutamate, (7-N,N-Diethylaminocoumarin-4-yl)-methyl-glutamate-trifluoroacetate]
I∞, current at t=∞: −1590 pA
kobs, apparent pseudo-first-order rate constant of the current rise: 765 ± 14 s⁻¹
